Assay results: US5279543A, “Device for iontophoretic non-invasive sampling or delivery of substances” (priority 1992, dated 1994)
Several values for one entry are separate records, joined by “and”; a condition that tells them apart may be missing. Identical values can stand only once. Entries after “also recorded” stand apart in the source; their conditions may differ. Counter-ions that a name gives are not always drawn. One block for each molecule: values may come before it.

Key:
[1] = charged and uncharged TRH; excised nude mouse skin; cited from earlier work
[2] = Procedure: (1) Leakage tests (without current) using dye and silicone rubber than skin; (2) leakage tests using dye and skin (without current); and (3) iontophoretic tests using the drug solutions and skin (with and without current). Procedures (1) and (2) were evaluated by visually inspecting the cell. […] The activity of the skin 13 and of the samples taken from the receptor chamber was determined post-experimentally. Each experiment lasts approximately 24 hours, ±2 hours, with samples collected hourly. Receptor fluid 17 was magnetically stirred (27), and the collection flow rate was 10 ml/hr.
[3] = Iontophoretic sampling in vitro (Example 2); assay type: in vitro ADME, hairless mouse; conditions: 0.5 mA, about 2 hr, about 0.63 mA/cm^2; various concentrations; mean of at least two experiments
Procedure: Iontophoretic sampling consists of pulling out chemical substances from the body through the skin by means of electricity. In order to test this method, an iontophoretic in-vitro cell is used (FIGS. 1, 2, 3 or 4). Full-thickness hairless mouse skin 13 (8-13 weeks old) is placed between the two parts of the cell. Solutions of radiolabelled drugs of known concentration in phosphate-buffered saline are circulated 10 ml/hr. beneath the skin. On top of the skin there are two self-adhesive gel electrodes, connected to a power supply which is set up in constant current mode (0.5 mA). Current is applied for measured length of time (about 2 hr.) corresponding to about 0.63 mA/cm^2. After the experiment the gel electrodes are taken for scintillation counting, which reflects the amount of drug absorbed by the gel electrodes. Using different drug concentrations with the same electrical current for the same period of time, a linear correlation between the amount is collected by the electrode and drug concentration is expected.

[4] = In vivo sampling with iontophoresis cell on human forearm; conditions: forearm of person; versus in vitro case
Text: The procedure and description above for in vitro sampling is used except that the membrane is replaced by the top of the forearm of a human being. The sampling cell used is the one in FIGS. 7, 8, 9A and 9B.

[5] = In vivo iontophoretic sampling (biosensing) in dog
Text: The sampling of the radioactive clonidine in vitro is described above. […] The operator is alerted when to administer an injection clondine to maintain the desired level of clonidine in the test dog.

[6] = In vitro iontophoretic delivery of P.S.O.S. from chamber 16A; assay type: in vitro ADME
Procedure: (b) P.S.O.S. (Potassium Sucrose Octa Sulfate) P.S.O.S., 0.6 ml of 1.5 mg/ml solution in a boric buffer is placed in chamber 16A and boric acid buffer alone is placed in chamber 16C of FIG. 1, 2 or 3. Using a direct current of 0.5 mA (0.65 mA/cm^2) transport of P.S.O.S. is observed up to 5 μg/hr.

[7] = In vitro iontophoretic sampling of glucose through skin into gel electrodes; assay type: in vitro ADME, hairless mouse (Skh: hr-1); conditions: for Amount Glucose Measured In Gel Electrode per Sample: four time periods; for Iontophoretic Flux sample (amount of glucose sampled in 2 hours): 0.5 mA, (+) electrode; for Sample-glucose: four cells
Procedure: In order to show the ability of the method to sample glucose through the skin, in vitro studies are conducted using hairless mouse skin as the skin model and the iontophoretic diffusion cells in FIGS. 1-13. The results here are applicable to in-vivo sampling from a mammal, particularly a human being. Two self-adhesive gel electrodes (Kenzgelelc, by Nitto Electric Industry Co., Limited, Osaka, Japan) are placed on the same side of a singe continuous piece of hairless mouse skin (full thickness-about 0.5 mm) (Skh: hr-1, 8-13 weeks old). Under the skin, radiolabelled (^14 C-U)-glucose having known concentration in solution in phosphate-buffered saline (0.9% sodium chloride) is perfused, pH of phosphate is about 7.4. Temperature is ambient.
In the first set of experiments, following the assembly of the cell and initiation of the glucose solution perfusion, current is applied (0.5 milliampere) for 2 hours. The voltage may vary from about 1 to 10 volts. Usually, it is about 5 volts. The important parameter to keep constant is the applied current. The voltage may vary based upon the electrical resistance of the sampling site. Then the gel electrodes are disconnected and tested for radioactivity content by conventional liquid scintillation counting. […]. […] (Electrical conditions in the experiments--same constant direct current (dc) but as iontophoretic delivery may also operate in pulsed current, etc., (the pulsed approach should also perform in a predictable way for sampling).
the second set of experiments, using similar experimental set-up as before, a (^14 C-U)-glucose solution of 0.34 mg/ml glucose is phosphate buffered saline is perfused, and the gel electrodes are replaced every 30 minutes.
Since the skin for each single experiment comes from a different mouse, evaluation of each single diffusion cell (means--samples collected through the same piece of skin), eliminating the first sample (the first 0.5 hr. is slightly higher than the others due to the experimental conditions) was done. […]

SMILES: NC(=O)[C@@H]1CCCN1C(=O)[C@H](Cc1cnc[nH]1)NC(=O)[C@@H]1CCC(=O)N1 [TRH, thyrotropin releasing hormone]
Iontophoretic flux across excised tissue compared with passive diffusion [1]: greater than those obtained by passive diffusion alone

SMILES: Clc1cccc(Cl)c1N=C1NCCN1 [clonidine-HCl, Clonidine HCl]
Rate of penetration through the skin with current ([2]; 0.63 mA/cm^2): 15.0 μg/cm^2 /hr
Mean rate of diffusion into the receptor phase (passive transport rate) ([2]; no current): 0.05 μg/cm^2 /hr
Drug found in the buffered saline of chamber 16C ([2]; no current, after 20 hours): no drug was found
Amount of labelled drug in the buffered saline of chamber 16C ([2]; with current 0.63 mA/cm^2, approximately 20 hours): 5 µg
Linearity of amount sampled versus drug concentration (FIG. 11 and 12) [3]: linearity of the results
Amount of clonidine sampled in vivo [4]: comparable to that observed in the in vitro case
Level of radioactive clonidine measured iontophoretically [5]: quickly and accurately

Transport of P.S.O.S. ([6]; direct current 0.5 mA (0.65 mA/cm^2), 0.6 ml of 1.5 mg/ml solution): up to 5 μg/hr
Amount of P.S.O.S. transferred ([6]; printed 'with a current' (comparison, same configuration)): only a few nanograms
SMILES: O=S(=O)(O)OC[C@H]1O[C@@](COS(=O)(=O)O)(O[C@H]2O[C@H](COS(=O)(=O)O)[C@@H](OS(=O)(=O)O)[C@H](OS(=O)(=O)O)[C@H]2OS(=O)(=O)O)[C@@H](OS(=O)(=O)O)[C@@H]1OS(=O)(=O)O [P.S.O.S., Potassium Sucrose Octa Sulfate]

S.D. for individual diffusion cells (individual mouse) ([7]; 0.34 mg/ml glucose, except cell #3): 4 to 9%
Amount of glucose sampled, average of four separate cells ([7]; 0.34 mg/ml glucose, first 0.5 hr sample eliminated): 0.79 to 0.74 μg
Ratio A/B of glucose sampled ([7]; 0.153 vs 1.07 mg/ml (concentration ratio 0.143)): 0.144
Sample-glucose, Average ([7]; average of samples 1-5 (0 - 2 1/2 hr), 0.34 mg/ml glucose, 15 ml/hr): 0.80 ± 0.19 µg
Amount Glucose Measured In Gel Electrode per Sample ([7]; cell 1, 0.34 mg/ml glucose, 15 ml/hr): 0.825 ± 0.041 µg
Amount Glucose Measured In Gel Electrode per Sample ([7]; cell 2, 0.34 mg/ml glucose, 15 ml/hr): 0.963 ± 0.090 µg
Amount Glucose Measured In Gel Electrode per Sample ([7]; cell 3, 0.34 mg/ml glucose, 15 ml/hr): 0.530 ± 0.115 µg
Amount Glucose Measured In Gel Electrode per Sample ([7]; cell 5, 0.34 mg/ml glucose, 15 ml/hr): 0.727 ± 0.033 µg
Iontophoretic Flux sample (amount of glucose sampled in 2 hours) ([7]; glucose concentration 1.07 mg/ml): 4.9 μg/2 hr and 4.9 +/- 0.7 μg/2 hr
Sample-glucose ([7]; sample 1, 0 - 1/2 hr, 0.34 mg/ml glucose, 15 ml/hr): 0.97 ± 0.12 µg
Sample-glucose ([7]; sample 2, 1/2 - 1 hr, 0.34 mg/ml glucose, 15 ml/hr): 0.79 ± 0.09 µg
Sample-glucose ([7]; sample 3, 1 - 1 1/2 hr, 0.34 mg/ml glucose, 15 ml/hr): 0.76 ± 0.10 µg
Sample-glucose ([7]; sample 4, 1 1/2 - 2 hr, 0.34 mg/ml glucose, 15 ml/hr): 0.75 ± 0.21 µg
Sample-glucose ([7]; sample 5, 2 - 2 1/2 hr, 0.34 mg/ml glucose, 15 ml/hr): 0.74 ± 0.24 µg
SMILES: O=C[C@H](O)[C@@H](O)[C@H](O)[C@H](O)CO [glucose]
Correlation between glucose concentration under/in the skin and amount of glucose sampled ([7]; fixed sampling time, same electrical conditions): near-perfect linear correlation; also recorded: clear correlation
Iontophoretic Flux sample (amount of glucose sampled in 2 hours) ([7]; glucose concentration 0.153 mg/ml): 0.705 μg/2 hr and 0.705 +/- 0.095 μg/2 hr
